# In patent US20090149427A1, “PHARMACEUTICALLY ACCEPTABLE SALTS AND HYDRATES OF RISEDRONIC ACID” (Pliva Hrvatska d.o.o., priority 2005, published 2009):
# Conditions: humidity range 0-90% RH at 25° C., over a time period of 1200 minutes, FIG. 7
# Procedure: FIG. 7: Izotherm diagram for tri-sodium risedronate dihydrate showing the sorption and desorption isotherm for tri-sodium risedronate dihydrate measured in a humidity range from 0-90% RH at 25° C. at DVS 1 (Surface Measurement System).
compound,measurement,value
O.O.O=P([O-])([O-])C(O)(Cc1cccnc1)P(=O)([O-])O.[Na+].[Na+].[Na+] [tri-sodium risedronate dihydrate],hygroscopicity (water absorption when humidity is raised),absorbs a minimum quantity of water
